# Assay results as given in US9701672B2, “Dihydropyridinone MGAT2 inhibitors for use in the treatment of metabolic disorders” (BRISTOL-MYERS SQUIBB COMPANY, priority 2014, dated 2017).
# Target: human MGAT-2 (Homo sapiens (Human), UniProt Q3SYC2)
# Assay: MGAT LCMS assay (h-MGAT LCMS)
# Format: biochemical
# Settings: human MGAT2
# Protocol: The MGAT enzyme reactions were performed in Corning FALCON® 96-well polypropylene plates, in a total volume of 60 μL of 50 mM potassium phosphate buffer pH 7.4, containing a final concentration of 100 μM 2-oleoylglycerol, 15 μM oleoyl-coenzyme A and 0.0013 μg/μL human or mouse MGAT-2 or 0.0026 μg/μL rat recombinant MGAT-2 membranes expressed in Sf9 cells. Assay plates were run through a fully automated robotics system and shaken for 5 seconds every minute for a total 10 minutes. The reactions were then quenched with 120 μL of ice cold methanol containing 1 μg/mL 1,2-distearoyl-rac-glycerol as the internal standard. Plates were shaken for 2 minutes and spun down to remove protein precipitation. After the spin, samples were transferred to LC/MS compatible PCR plates. For LC/MS analysis, a ThermoFisher Surveyor pump, utilizing a Waters […]® C8, 50×2.1 mm column, was used for the chromatography of enzyme products. The buffer system consists of 0.1% formic acid in water with a mobile phase consisting 0.1% formic acid in methanol. The shallow gradient is 90-100% mobile phase in 0.2 min with a total run time of 2.3 min. The first 0.5 minutes of each injection was diverted to waste to eliminate the presence of phosphate buffer in the enzymatic reaction. The column was run at 0.6 mL/min and a temperature of 65° C. Mass spectrometry analysis of the samples was performed on a ThermoFisher Quantum Triple quad utilizing APCI (+) as the mode of ionization. Data was acquired in Single Ion Monitoring (SIM) mode analyzing Diolein=m/z 603.6 (PRODUCT) and 1,2-distearoyl-rac-glycerol (IS)=m/z 607.6. The ratio of Diolein to internal standard (Peak Area Ratio) is utilized to calculate IC50 values.
# “NT” denotes “Not tested”.
# human MGAT-2, sequence (Q3SYC2 whole entry): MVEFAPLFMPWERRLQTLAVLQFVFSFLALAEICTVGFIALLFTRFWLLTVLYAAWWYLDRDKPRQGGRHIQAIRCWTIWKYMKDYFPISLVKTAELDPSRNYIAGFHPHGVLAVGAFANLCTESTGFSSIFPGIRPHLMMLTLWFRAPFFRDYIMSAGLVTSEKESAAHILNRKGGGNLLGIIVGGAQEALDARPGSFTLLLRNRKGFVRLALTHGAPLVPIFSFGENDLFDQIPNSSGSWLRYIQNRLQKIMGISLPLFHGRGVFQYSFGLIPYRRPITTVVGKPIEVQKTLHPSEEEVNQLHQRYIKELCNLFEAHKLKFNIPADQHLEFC
row,IC50,SMILES
1,2000 to 10000 nM,Cc1csc(C2=C(c3nnn[nH]3)C(=O)N[C@@](c3ccc(OCCCC(F)(F)F)cc3)(C(F)(F)F)C2)c1 [Example 10]

# Same assay, conditions: human MGAT2 membranes expressed in Sf9 cells; 100 μM 2-oleoylglycerol, 15 μM oleoyl-coenzyme A
row,SMILES,IC50
1,"O=C1N[C@@](c2ccc(OCCCC(F)(F)F)cc2)(C(F)(F)F)CC(c2ccc(C3CC3)s2)=C1c1nnn[nH]1 [Example 1, (S)-4-(5-Cyclopropylthiophen-2-yl)-3-(1H-tetrazol-5-yl)-6-(4-(4,4,4-trifluorobutoxy)phenyl)-6-(trifluoromethyl)-5,6-dihydropyridin-2(1H)-one]",2.5 nM
2,CCCCCCC#C[C@]1(C(F)(F)F)CC(c2ccc(Cl)s2)=C(c2nnn[nH]2)C(=O)N1 [Example 5],7.8 nM
3,CCCCCCC#C[C@]1(C(F)(F)F)CC(c2ccc(Br)s2)=C(c2nnn[nH]2)C(=O)N1 [Example 6],2.2 nM
4,CN(C)Cc1ccc(C2=C(c3nnn[nH]3)C(=O)N[C@@](c3ccc(OCCCC(F)(F)F)cc3)(C(F)(F)F)C2)s1 [Example 12],363 nM
5,Cc1cnc(C2=C(c3nnn[nH]3)C(=O)N[C@@](c3ccc(OCCCC(F)(F)F)cc3)(C(F)(F)F)C2)s1 [Example 13],19.4 nM
6,O=C1N[C@@](c2ccc(OCCCCCC(F)(F)F)cc2F)(C(F)(F)F)CC(c2ccn(C3CC3)n2)=C1c1nnn[nH]1 [Example 16],34 nM
7,O=C1N[C@@](c2ccc(OCCCC(F)(F)F)cc2)(C(F)(F)F)CC(c2ccn(C3CC3)n2)=C1c1nnn[nH]1 [Example 17],16.6 nM
8,O=C1N[C@@](c2ccc(OCCCC(F)(F)F)cc2)(C(F)(F)F)CC(c2cnn(C3CC3)c2)=C1c1nnn[nH]1 [Example 18],24.5 nM
9,O=C1N[C@@](c2ccc(OCCCC(F)(F)F)cc2)(C(F)(F)F)CC(c2ccn(CC3CC3)n2)=C1c1nnn[nH]1 [Example 19],31.8 nM
10,O=C1N[C@@](c2ccc(OCCCC(F)(F)F)cc2)(C(F)(F)F)CC(c2ccn(CC3CCC3)n2)=C1c1nnn[nH]1 [Example 21],135 nM
11,O=C1N[C@@](c2ccc(CCCCC(F)(F)F)cc2)(C(F)(F)F)CC(c2ccn(CC3CC3)n2)=C1c1nnn[nH]1 [Example 22],1.2 nM
12,CC(C)n1ccc(C2=C(c3nnn[nH]3)C(=O)N[C@@](c3ccc(CCCCC(F)(F)F)cc3)(C(F)(F)F)C2)n1 [Example 23],2.1 nM
13,O=C1N[C@@](c2ccc(OCCCCCC(F)(F)F)cc2)(C(F)(F)F)CC(c2ccn(C3CC3)n2)=C1c1nnn[nH]1 [Example 25],102 nM
14,CC(C)n1ccc(C2=C(c3nnn[nH]3)C(=O)N[C@@](c3ccc(OCCCCCC(F)(F)F)cc3)(C(F)(F)F)C2)n1 [Example 26],43.7 nM
15,CC(C)(C)n1ccc(C2=C(c3nnn[nH]3)C(=O)N[C@@](c3ccc(OCCCCCC(F)(F)F)cc3)(C(F)(F)F)C2)n1 [Example 27],185 nM
16,CCn1ccc(C2=C(c3nnn[nH]3)C(=O)N[C@@](c3ccc(OCCCCCC(F)(F)F)cc3)(C(F)(F)F)C2)n1 [Example 29],52.1 nM
17,O=C1N[C@@](c2ccc(OCCCCCC(F)(F)F)cc2)(C(F)(F)F)CC(c2ccn(CC3CC3)n2)=C1c1nnn[nH]1 [Example 30],2.7 nM
18,CC(C)Cn1ccc(C2=C(c3nnn[nH]3)C(=O)N[C@@](c3ccc(OCCCCCC(F)(F)F)cc3)(C(F)(F)F)C2)n1 [Example 31],61.9 nM
19,CC(C)n1nc(C2=C(c3nnn[nH]3)C(=O)N[C@@](c3ccc(OCCCCCC(F)(F)F)cc3)(C(F)(F)F)C2)c2ccccc21 [Example 33],950 nM

row,SMILES,IC50
1,CC(C)n1cc(C2=C(c3nnn[nH]3)C(=O)N[C@@](c3ccc(OCCCCCC(F)(F)F)cc3)(C(F)(F)F)C2)c2ccccc21 [Example 34],86.9 nM
2,CN(C)c1cnc(C2=C(c3nnn[nH]3)C(=O)N[C@@](c3ccc(OCCCC(F)(F)F)cc3)(C(F)(F)F)C2)s1 [Example 35],11.5 nM
3,Cc1cnc(C2=C(c3nnn[nH]3)C(=O)N[C@@](c3ccc(OCCCC(F)(F)F)cc3)(C(F)(F)F)C2)nc1 [Example 38],34.3 nM
4,CC(C)n1ccc(C2=C(c3nnn[nH]3)C(=O)N[C@@](c3ccc(OCCCC(F)(F)F)cc3F)(C(F)(F)F)C2)n1 [Example 39],16.6 nM
5,O=C1N[C@@](c2ccc(OCCCC(F)(F)F)cc2F)(C(F)(F)F)CC(c2ccn(C3CCC3)n2)=C1c1nnn[nH]1 [Example 40],6.7 nM
6,O=C1N[C@@](c2ccc(OCCCC(F)(F)F)cc2F)(C(F)(F)F)CC(c2ccn(C3CC3)n2)=C1c1nnn[nH]1 [Example 41],73.6 nM
7,CCn1ccc(C2=C(c3nnn[nH]3)C(=O)N[C@@](c3ccc(OCCCC(F)(F)F)cc3F)(C(F)(F)F)C2)n1 [Example 43],20.2 nM
8,O=C1N[C@@](c2ccc(OCCCCC(F)(F)F)cc2)(C(F)(F)F)CC(c2ccc(C3CC3)s2)=C1c1nnn[nH]1 [Example 44],15.2 nM
9,CN(C)c1cnc(C2=C(c3nnn[nH]3)C(=O)N[C@@](c3ccc(OCCCCC(F)(F)F)cc3)(C(F)(F)F)C2)s1 [Example 45],3.5 nM
10,CC(C)n1ccc(C2=C(c3nnn[nH]3)C(=O)N[C@@](c3ccc(CCCCC(F)(F)F)cc3F)(C(F)(F)F)C2)n1 [Example 46],11.4 nM
11,O=C1N[C@@](c2ccc(CCCCC(F)(F)F)cc2F)(C(F)(F)F)CC(c2ccn(C3CCC3)n2)=C1c1nnn[nH]1 [Example 47],2.7 nM
12,CCn1ccc(C2=C(c3nnn[nH]3)C(=O)N[C@@](c3ccc(CCCCC(F)(F)F)cc3F)(C(F)(F)F)C2)n1 [Example 49],4.5 nM
13,CC(C)Cn1ccc(C2=C(c3nnn[nH]3)C(=O)N[C@@](c3ccc(CCCCC(F)(F)F)cc3F)(C(F)(F)F)C2)n1 [Example 50],9.4 nM
14,CC(C)Cn1ccc(C2=C(c3nnn[nH]3)C(=O)N[C@@](c3ccc(OCCCC(F)(F)F)cc3F)(C(F)(F)F)C2)n1 [Example 51],97.4 nM
15,O=C1N[C@@](c2ccc(OCCCC(F)(F)F)cc2Cl)(C(F)(F)F)CC(c2ccc(C3CC3)s2)=C1c1nnn[nH]1 [Example 56],0.2 nM
16,O=C1N[C@@](c2ccc(OCCCC(F)(F)F)cc2F)(C(F)(F)F)CC(c2ncc(C3CC3)s2)=C1c1nnn[nH]1 [Example 59],1.4 nM
17,O=C1N[C@@](c2ccc(OCCCCCC(F)(F)F)cc2)(C(F)(F)F)CC(c2nc3ccccc3s2)=C1c1nnn[nH]1 [Example 60],137 nM
18,CCc1cnc(C2=C(c3nnn[nH]3)C(=O)N[C@@](c3ccc(OCCCC(F)(F)F)cc3F)(C(F)(F)F)C2)s1 [Example 62],2.1 nM
19,O=C1N[C@@](c2ccc(OCCCCCC(F)(F)F)cc2Cl)(C(F)(F)F)CC(c2ncc(C3CC3)s2)=C1c1nnn[nH]1 [Example 63],0.7 nM

# Now from value to compound:
row,IC50,SMILES
1,41 nM,Cc1ccc(C2=C(c3nnn[nH]3)C(=O)N[C@@](c3ccc(OCCCC(F)(F)F)cc3)(C(F)(F)F)C2)s1 [Example 2]
2,370 nM,O=C1N[C@@](c2ccc(OCCCC(F)(F)F)cc2)(C(F)(F)F)CC(c2ccc(Cl)s2)=C1c1nnn[nH]1 [Example 3]
3,9 nM,O=C1N[C@@](c2ccc(OCCCC(F)(F)F)cc2)(C(F)(F)F)CC(c2cc3ccccc3s2)=C1c1nnn[nH]1 [Example 7]
4,32 nM,CCc1ccc(C2=C(c3nnn[nH]3)C(=O)N[C@@](c3ccc(OCCCC(F)(F)F)cc3)(C(F)(F)F)C2)s1 [Example 9]
5,873 nM,Cc1ccsc1C1=C(c2nnn[nH]2)C(=O)N[C@@](c2ccc(OCCCC(F)(F)F)cc2)(C(F)(F)F)C1 [Example 11]
6,72.1 nM,CN(C)c1ccc(C2=C(c3nnn[nH]3)C(=O)N[C@@](c3ccc(OCCCC(F)(F)F)cc3)(C(F)(F)F)C2)cn1 [Example 14]
7,14.5 nM,O=C1N[C@@](c2ccc(OCCCCCC(F)(F)F)cc2F)(C(F)(F)F)CC(c2cnn(C3CC3)c2)=C1c1nnn[nH]1 [Example 15]
8,74.7 nM,O=C1N[C@@](c2ccc(OCCCC(F)(F)F)cc2)(C(F)(F)F)CC(c2ccn(C3CCC3)n2)=C1c1nnn[nH]1 [Example 20]
9,22.9 nM,O=C1N[C@@](c2ccc(CCCCC(F)(F)F)cc2)(C(F)(F)F)CC(c2ccn(C3CC3)n2)=C1c1nnn[nH]1 [Example 24]
10,17.6 nM,CN(C)c1ccc(C2=C(c3nnn[nH]3)C(=O)N[C@@](c3ccc(OCCCC(F)(F)F)cc3)(C(F)(F)F)C2)nc1 [Example 28]
11,3 nM,O=C1N[C@@](c2ccc(CCCCC(F)(F)F)cc2F)(C(F)(F)F)CC(c2ccn(CC3CC3)n2)=C1c1nnn[nH]1 [Example 42]
12,3.2 nM,O=C1N[C@@](c2ccc(OCCCC(F)(F)F)cc2F)(C(F)(F)F)CC(c2ccn(CC3CC3)n2)=C1c1nnn[nH]1 [Example 52]
13,44 nM,O=C1N[C@@](c2ccc(OCCCC(F)(F)F)cc2F)(C(F)(F)F)CC(c2ccn(CC3CCC3)n2)=C1c1nnn[nH]1 [Example 53]
14,1.4 nM,COc1cc(OCCCC(F)(F)F)ccc1[C@]1(C(F)(F)F)CC(c2ccc(C3CC3)s2)=C(c2nnn[nH]2)C(=O)N1 [Example 57]
15,2.2 nM,CCc1ccc(C2=C(c3nnn[nH]3)C(=O)N[C@@](c3ccc(OCCCCCC(F)(F)F)cc3)(C(F)(F)F)C2)s1 [Example 58]
16,120 nM,O=C1N[C@@](c2ccc(OCCCC(F)(F)F)cc2Cl)(C(F)(F)F)CC(c2ccn(C3CC3)n2)=C1c1nnn[nH]1 [Example 61]
